Source: paper PMC9181852, “In Vivo and In Vitro Biological Evaluation and Molecular Docking Studies of Compounds Isolated from Micromeria biflora (Buch. Ham. ex D.Don) Benth” (Molecules, 2022)

Columns and labels:
[1] = Hot plate analgesic test; format: in vivo, mice (Balb/c)
Procedure: (§1) Healthy mice (Balb/c) with weight ranging from 20 to 22 g and ages 9 to 10 weeks were used in this screening model. The grown animals were provided with standard laboratory conditions such as standard food and water ad libitum. The in vivo biological screening test was performed at the Department of Veterinary Medicine, College of Agriculture and Veterinary Medicine, Qassim University Buraydah, Saudi Arabia, as well as Swabi University, KP, Pakistan, according to published procedures.
The analgesic effect of salicylalazine isolated from M. biflora was obtained with help of a hot plate according to the published method. The animals were distributed into different groups according to the previously reported method. A preliminary screening test was performed on the animals using a hot plate (Harvard apparatus) sustained at 55 ± 2 °C. […] Group I (positive control) was administered with the standard drug, while Group II (negative control) was administered with normal saline. The other groups of animals were administered with 2.5, 5, 10, 15, and 20 mg/kg (PO). […] To avoid tissue damage, a cut-off time of 30 s was used for every animal. The latency time was recorded for all groups (n = 6) at consistent intervals (30, 60, 90, and 120 min).

[2] = Traction muscle relaxation model; format: in vivo, mice (Balb/c)
Procedure: as §1
A traction screening model was adapted to identify the relaxation of muscle for salicylalazine isolated from M. biflora according to the standard method. The traction model was considered by using metallic wires covered with rubber, and then the wires were linked with each other using a stand around 60 cm upstairs of the lab bench. The animals were distributed into different groups, with each group comprising six animals (n = 6). The various groups of animals were administered water, diazepam, and salicylalazine at different doses. After administration, all groups of animals were subjected to traction screening after 30, 60, and 90 min. […] Traction testing was repeatedly performed to calculate the muscle relaxant ability of salicylalazine as per the reported method.

[3] = Open field sedative test; format: in vivo, mice (Balb/c); conditions: 30 min after administration
Procedure: as §1
The sedative potential of salicylalazine isolated from M. biflora was assessed as per the reported procedure. The animals were divided into different groups, as designated above. The apparatuses used in this screening contained an area of white wood with a 150 cm diameter bordered by stainless steel walls and was separated into 19 squares by black lines. Then, the open field apparatus was positioned inside the light and sound-reduced room. The different groups of animals were administered distilled water, diazepam, and salicylalazine at different doses. Thirty minutes after administration, all groups of animals were permitted to move from the center of the design box. […] Statistical calculations were performed by counting the number of lines crossed by every animal.

[4] = Histamine-induced paw edema; format: in vivo, mice
Procedure: as §1
The anti-inflammatory potential of salicylalazine isolated from M. biflora was determined as per our recently published method. The induction of inflammation was completed by administering 0.1 mL histamine (0.5%) to the animal’s sub plantar region. The volume of the paw was recorded 1–5 h after the administration of the inflammatory drug. Then, every group of animals was divided and pretreated orally with salicylalazine (15 and 20 mg/kg) for 1 h before making paw edema. The effect of the drug was related to that of loratadine (standard).

[5] = test system: A498; assay: Anticancer MTT assay, A498; format: cell-based; conditions: Homo sapiens, 24 h
Procedure: The MTT assay was used to assess the cytotoxicity of salicylalazine isolated from M. biflora as per the previously documented method. For the MTT assay, Gibco BRL was combined with 100 µg/mL of penicillin sodium salts, 10% FBS (Gibco), and sodium carbonate (2 mg/mL). The prepared medium was used to keep three human cancer cell lines: human hepatoma (HepG2), human A498, and renal NCI-h226 non-small cell lung). Mouse hepatocytes, including HepG2 and HepG-R, were planted in 96-well plates. The cell lines were preserved with salicylalazine (1.5–100 μM), hatched for 24 h, and then they were tracked using the MTT procedure^14. This method was used for all tested cell lines. The IC50 value of salicylalazine in different cell lines was calculated from the concentration-effect curves. The standard drug used in this experiment was paclitaxel.

[6] = test system: MDR2780AD; assay: Anticancer MTT assay, MDR2780AD; format: cell-based; conditions: 24 h

Oc1ccccc1/C=N/N=C/c1ccccc1O [Salicylalazine, salicylalazine]
Latency time on hot plate ([1]; dose 2.5 mg/kg, 30 min): 13.33 ± 0.55 s
Latency time on hot plate ([1]; dose 2.5 mg/kg, 60 min): 14.40 ± 0.83 s
Latency time on hot plate ([1]; dose 2.5 mg/kg, 90 min): 14.33 ± 0.64 s
Latency time on hot plate ([1]; dose 2.5 mg/kg, 120 min): 14.01 ± 0.43 s
Latency time on hot plate ([1]; dose 5 mg/kg, 30 min): 15.12 ± 0.80 s
Latency time on hot plate ([1]; dose 5 mg/kg, 60 min): 18.09 ± 0.69 s
Latency time on hot plate ([1]; dose 5 mg/kg, 90 min): 18.03 ± 0.90 s
Latency time on hot plate ([1]; dose 5 mg/kg, 120 min): 17.97 ± 1.00 s
Latency time on hot plate ([1]; dose 10 mg/kg, 30 min): 18.65 ± 0.95 s
Latency time on hot plate ([1]; dose 10 mg/kg, 60 min): 20.89 ± 0.90 s
Latency time on hot plate ([1]; dose 10 mg/kg, 90 min): 20.77 ± 0.87 s
Latency time on hot plate ([1]; dose 10 mg/kg, 120 min): 19.97 ± 0.80 s
Latency time on hot plate ([1]; dose 15 mg/kg, 30 min): 21.43 ± 0.50 s
Latency time on hot plate ([1]; dose 15 mg/kg, 60 min): 22.89 ± 0.80 s
Latency time on hot plate ([1]; dose 15 mg/kg, 90 min): 22.00 ± 0.98 s
Latency time on hot plate ([1]; dose 15 mg/kg, 120 min): 21.65 ± 0.98 s
Latency time on hot plate ([1]; dose 20 mg/kg, 30 min): 23.00 ± 0.44 s
Latency time on hot plate ([1]; dose 20 mg/kg, 60 min): 23.90 ± 0.97 s
Latency time on hot plate ([1]; dose 20 mg/kg, 90 min): 22.80 ± 1.05 s
Latency time on hot plate ([1]; dose 20 mg/kg, 120 min): 22.79 ± 1.09 s
Traction Test (%) ([2]; dose 2.5 mg/kg, 30 min): 21.23 ± 1.55%
Traction Test (%) ([2]; dose 2.5 mg/kg, 60 min): 27.78 ± 2.10%
Traction Test (%) ([2]; dose 2.5 mg/kg, 90 min): 28.65 ± 1.02%
Traction Test (%) ([2]; dose 5 mg/kg, 30 min): 28.12 ± 1.60%
Traction Test (%) ([2]; dose 5 mg/kg, 60 min): 34.56 ± 2.07%
Traction Test (%) ([2]; dose 5 mg/kg, 90 min): 35.34 ± 2.00%
Traction Test (%) ([2]; dose 10 mg/kg, 30 min): 34.99 ± 1.70%
Traction Test (%) ([2]; dose 10 mg/kg, 60 min): 39.45 ± 2.12%
Traction Test (%) ([2]; dose 10 mg/kg, 90 min): 40.66 ± 1.88%
Traction Test (%) ([2]; dose 15 mg/kg, 30 min): 45.78 ± 1.88%
Traction Test (%) ([2]; dose 15 mg/kg, 60 min): 52.98 ± 2.15%
Traction Test (%) ([2]; dose 15 mg/kg, 90 min): 52.32 ± 2.04%
Traction Test (%) ([2]; dose 20 mg/kg, 30 min): 53.72 ± 1.89%
Traction Test (%) ([2]; dose 20 mg/kg, 60 min): 60.56 ± 2.13%
Traction Test (%) ([2]; dose 20 mg/kg, 90 min): 61.32 ± 2.06%
No of Lines Crossed ([3]; dose 2.5 mg/kg): 78.54 ± 0.98
No of Lines Crossed ([3]; dose 5 mg/kg): 69.98 ± 1.22
No of Lines Crossed ([3]; dose 10 mg/kg): 60.90 ± 1.00
No of Lines Crossed ([3]; dose 15 mg/kg): 51.09 ± 0.97
No of Lines Crossed ([3]; dose 20 mg/kg): 40.98 ± 0.80
Effect on histamine-induced paw edema ([4]; 15 mg/kg, 1 h): 78.45%
Effect on histamine-induced paw edema ([4]; 15 mg/kg, 2 h): 74.33%
Effect on histamine-induced paw edema ([4]; 15 mg/kg, 3 h): 58.09%
Effect on histamine-induced paw edema ([4]; 20 mg/kg, 1 h): 90.55%
Effect on histamine-induced paw edema ([4]; 20 mg/kg, 2 h): 93.99%
Effect on histamine-induced paw edema ([4]; 20 mg/kg, 3 h): 86.11%
IC50 [5]: 115.5 ± 0.42 µM
IC50 [6]: 0.85 ± 0.09 µM
